Measured values: patent US10495796B2, “Near-infrared cut filter” (AGC INC., priority 2012, dated 2019)
Values belong to the molecule of their own block, whether it stands above or below them.

Tests used:
[1] = Solubility of dye to organic solvent; format: physicochemical; conditions: 50° C., mass % of the dye to the mass of the entire solution; for Solubility to organic solvent: MIBK: methyl isobutyl ketone
Experimental: Regarding the dyes (A11-1) to (A11-10) and (A11-20) to (A11-27) obtained above, solubility to organic solvent was evaluated as follows.
Three kinds of solvents, cyclohexanone, methyl isobutyl ketone (MIBK), toluene, were used as the organic solvent in the solubility test. Note that in Table 3, % is mass % of the dye to the mass of the entire solution. Further, the temperature of each organic solvent in the solubility test was 50° C.

[2] = Absorption characteristics: transmission spectrum of near-infrared absorbing layer of NIR filter (UV-visible spectrophotometer); format: physicochemical
Experimental: Further, the transmittance of the near-infrared absorbing layer can be measured by using an ultraviolet visible light spectrophotometer. For example, when the near-infrared absorbing layer is provided on a glass substrate, the transmittance is calculated by subtracting the transmittance of only the glass substrate. Note that the transmittance of light of the near-infrared absorbing layer refers to, unless otherwise stated, a ratio to light incident from a direction orthogonal to a main surface of a sample, the ratio of this light traveling straight inside the sample and transmitted to an opposite side. Further, when the transmittance is measured by making light incident from a direction other than the direction orthogonal to the main surface of the sample in the measurement of transmittance of light, an angle made by a straight line indicating the direction of the incident light to a line orthogonal to the main surface is called an incident angle.
In the condition (ii-3), the value calculated by nd(B)×(λa−λc) (hereinafter, this value may also be described as “Is value”) is a value to be an index indicating steepness of the absorption curve in the vicinity of the boundary between the visible light region and the near-infrared region with respect to a transmission spectrum of the near-infrared absorbing layer. When this value is 115 or less, the absorption curve in the vicinity of the boundary between the visible light region and the near-infrared region is steep with respect to the near-infrared absorbing layer, which can be said as preferable for the NIR filter.
That is, with respect to the transmission spectrum of the near-infrared absorbing layer, the smaller the difference (λa−λc) between the shortest wavelength λa with transmittance of 1% in the region of 650 nm to 800 nm and the wavelength λc with transmittance of 70% on a shorter wavelength side than the λa, the steeper the absorption curve in the vicinity of the boundary between the visible light region and the near-infrared region. Here, λa−λc also depends on a wavelength width having transmittance of 1% or less (λb−λa; λb is the longest wavelength with transmittance of 1% in the wavelength region of 650 nm to 800 nm). Accordingly, in order to compare and evaluate the steepness of the absorption curve in the above region of the transmission spectrum of the near-infrared absorbing layer, λb−λa is fixed to 30 nm. That is, λb−λa of the near-infrared absorbing layer which the present filter has is not limited to 30 nm.
Further, in the Is value, (λa−λc) is multiplied by the refractive index nd(B) of the transparent resin (B) contained in the near-infrared absorbing layer as a coefficient. This is to standardize the difference in steepness among resins.
Regarding transmittance (%/nm) of the NIR filters 1 to 109 obtained above, transmission spectra were measured and calculated by using an ultraviolet visible light spectrophotometer (U-4100 type spectrophotometer made by Hitachi High-Technologies Corporation). Analysis results of transmission spectra of the near-infrared absorbing layers which the NIR filters have are presented in Table 4, Table 5 and Table 6 for the NIR filters 1 to 25, 26 to 51, 52 to 75, respectively, and are presented in Table 7 and Table 8 for the NIR filters 76 to 94, 95 to 109, respectively. In Table 4 to Table 8, the ratios (parts by mass) of dyes to 100 parts by mass of the transparent resin (B) and film thicknesses of the near-infrared absorbing layers are described together.
Further, conditions of preferred transmission spectra of the near-infrared absorbing layers in the present filter and Is values obtained by the formula: nd(B)×(λa-λc) described in above (ii-3) are described in Table 4 to Table 8 together with λa in the condition (ii-1) and λb-λa in the condition (ii-2). Note that values described in Table 4 to Table 8 are values obtained by subtracting transmittance of a glass plate from transmittance of an NIR filter. […]

[3] = transparent resin polycarbonate SP1516, nd(B) 1.60, film thickness 0.9 μm
[4] = transparent resin acrylic resin BR50, nd(B) 1.56, film thickness 2.3 μm
[5] = transparent resin polycarbonate EP5000, nd(B) 1.63, film thickness 2.4 μm
[6] = transparent resin polycarbonate SP3810, nd(B) 1.63, film thickness 1.0 μm
[7] = transparent resin polycarbonate SP3810, nd(B) 1.63, film thickness 2.8 μm

Solubility to organic solvent: Cyclohexanone [1]: <1.0% mass %
Solubility to organic solvent: MIBK [1]: <1.0% mass %
Solubility to organic solvent: Toluene [1]: 1.00% mass %
430 nm to 600 nm Average transmittance [2, 3]: 95.3%
Is value (nd(B)×(λa-λc)) [2, 3]: 126.4
λa [2, 3]: 691 nm
λa − λc [2, 3]: 79 nm
λb [2, 3]: 721 nm
λb − λa [2, 3]: 30 nm
λc [2, 3]: 612 nm
λmax [2, 3]: 707 nm
SMILES: CCCCCC(=O)Nc1cc2c(cc1C1=C([O-])C(=c3cc4c(cc3NC(=O)CCCCC)=[N+](C)C(C)C4(C)C)C1=O)C(C)(C)C(C)N2C (centres unmarked) [Example A11-22, reference compound]

Solubility to organic solvent: Cyclohexanone [1]: 5.00% mass %
Solubility to organic solvent: MIBK [1]: 1.00% mass %
Solubility to organic solvent: Toluene [1]: 5.00% mass %
430 nm to 600 nm Average transmittance [2, 4]: 93.7%
Is value (nd(B)×(λa-λc)) [2, 4]: 132.7
λa [2, 4]: 688 nm
λa − λc [2, 4]: 85 nm
λb [2, 4]: 718 nm
λb − λa [2, 4]: 30 nm
λc [2, 4]: 603 nm
λmax [2, 4]: 705 nm
430 nm to 600 nm Average transmittance [2, 5]: 95.9%
Is value (nd(B)×(λa-λc)) [2, 5]: 120.8
λa [2, 5]: 694 nm
λa − λc [2, 5]: 69 nm
λb [2, 5]: 724 nm
λb − λa [2, 5]: 30 nm
λc [2, 5]: 620 nm
λmax [2, 5]: 710 nm
430 nm to 600 nm Average transmittance [2, 6]: 95.2%
Is value (nd(B)×(λa-λc)) [2, 6]: 122.6
λa [2, 6]: 693 nm
λa − λc [2, 6]: 75 nm
λb [2, 6]: 723 nm
λb − λa [2, 6]: 30 nm
λc [2, 6]: 618 nm
λmax [2, 6]: 710 nm
430 nm to 600 nm Average transmittance [2, 7]: 95.4%
Is value (nd(B)×(λa-λc)) [2, 7]: 119.3
λa [2, 7]: 694 nm
λa − λc [2, 7]: 73 nm
λb [2, 7]: 724 nm
λb − λa [2, 7]: 30 nm
λc [2, 7]: 621 nm
λmax [2, 7]: 710 nm
SMILES: CCCCCCCC(=O)Nc1cc2c(cc1C1=C([O-])C(=c3cc4c(cc3NC(=O)CCCCCCC)=[N+](C)C(C)C4(C)C)C1=O)C(C)(C)C(C)N2C (centres unmarked) [Example A11-24, reference compound]

Solubility to organic solvent: Cyclohexanone [1]: 3.00% mass %
Solubility to organic solvent: MIBK [1]: 1.00% mass %
Solubility to organic solvent: Toluene [1]: 10%< mass %
430 nm to 600 nm Average transmittance [2, 4]: 94.5%
Is value (nd(B)×(λa-λc)) [2, 4]: 129.6
λa [2, 4]: 688 nm
λa − λc [2, 4]: 83 nm
λb [2, 4]: 718 nm
λb − λa [2, 4]: 30 nm
λc [2, 4]: 605 nm
λmax [2, 4]: 705 nm
430 nm to 600 nm Average transmittance [2, 5]: 95.5%
Is value (nd(B)×(λa-λc)) [2, 5]: 120.8
λa [2, 5]: 693 nm
λa − λc [2, 5]: 69 nm
λb [2, 5]: 723 nm
λb − λa [2, 5]: 30 nm
λc [2, 5]: 619 nm
λmax [2, 5]: 710 nm
430 nm to 600 nm Average transmittance [2, 3]: 95.6%
Is value (nd(B)×(λa-λc)) [2, 3]: 124.8
λa [2, 3]: 690 nm
λa − λc [2, 3]: 78 nm
λb [2, 3]: 720 nm
λb − λa [2, 3]: 30 nm
λc [2, 3]: 612 nm
λmax [2, 3]: 707 nm
430 nm to 600 nm Average transmittance [2, 6]: 94.6%
Is value (nd(B)×(λa-λc)) [2, 6]: 122.6
λa [2, 6]: 693 nm
λa − λc [2, 6]: 75 nm
λb [2, 6]: 723 nm
λb − λa [2, 6]: 30 nm
λc [2, 6]: 618 nm
λmax [2, 6]: 710 nm
430 nm to 600 nm Average transmittance [2, 7]: 95.3%
Is value (nd(B)×(λa-λc)) [2, 7]: 119.3
λa [2, 7]: 694 nm
λa − λc [2, 7]: 73 nm
λb [2, 7]: 724 nm
λb − λa [2, 7]: 30 nm
λc [2, 7]: 621 nm
λmax [2, 7]: 710 nm
SMILES: CCCCCCCCCCCC(=O)Nc1cc2c(cc1C1=C([O-])C(=c3cc4c(cc3NC(=O)CCCCCCCCCCC)=[N+](C)C(C)C4(C)C)C1=O)C(C)(C)C(C)N2C (centres unmarked) [Example A11-25, reference compound]
